For orientation: IC50 means the concentration at which inhibition is half-maximal.

One test has as its system NCI-H460 cells. The test can be described thus: Cancer cell growth inhibition experiment (MTT assay). The conditions noted are these: Homo sapiens; NCI-H460 lung cancer cell line; 48 hours treatment; MTT cell viability. Format: cell-based. How it is done: NCI-H460 cells, lung cancer cell lines, were cultured in 5% CO2, 37° C. incubator using a flask for 75 cm^2 tissue culture. 96-well plates were used for the evaluation. These were prepared by differently applying at concentrations in the range of 6,000 to 12,000 cells/well according to the growth rate of the cell lines. The medium containing 5% FBS were dispensed in 200 μL/well and used. The medium were cultured for 24 hours. After confirming the cell status and dispensing form of a 96-well plate under a microscope, they were used for subsequent experiments. The compounds were evaluated at concentrations of 100, 30, 10, 3, 1, 0.3, 0.03, 0.01 μM. After removing the existing medium, the compounds with various concentrations were treated in an amount of 200 μL/well. The compounds-treated plates were further cultured for 48 hours, and the cell viabilities were measured by MTT assay to calculate IC50 values.
% Inhibition and IC50 values of the respective compounds were calculated and analyzed using Sigma Plot 8.0. The case where the derived IC50 is 5 μM or less is represented by “A”, the case where the IC50 is 5 to 30 μM is represented by “B”, and the case where the IC50 is 30 μM or higher is represented by “C”.
For orientation: Tetrazolium assays rely on reduction of a dye to a coloured formazan, in cell work by metabolically active cells.

Test [1] concerns the target T1, PRS (prolyl-tRNA synthetase) (Homo sapiens, UniProt P07814).
T1 construct: the portion corresponding to PRS in cDNA of EPRS was subcloned; made in house
T1 sequence (P07814 1007-1512 limits assumed): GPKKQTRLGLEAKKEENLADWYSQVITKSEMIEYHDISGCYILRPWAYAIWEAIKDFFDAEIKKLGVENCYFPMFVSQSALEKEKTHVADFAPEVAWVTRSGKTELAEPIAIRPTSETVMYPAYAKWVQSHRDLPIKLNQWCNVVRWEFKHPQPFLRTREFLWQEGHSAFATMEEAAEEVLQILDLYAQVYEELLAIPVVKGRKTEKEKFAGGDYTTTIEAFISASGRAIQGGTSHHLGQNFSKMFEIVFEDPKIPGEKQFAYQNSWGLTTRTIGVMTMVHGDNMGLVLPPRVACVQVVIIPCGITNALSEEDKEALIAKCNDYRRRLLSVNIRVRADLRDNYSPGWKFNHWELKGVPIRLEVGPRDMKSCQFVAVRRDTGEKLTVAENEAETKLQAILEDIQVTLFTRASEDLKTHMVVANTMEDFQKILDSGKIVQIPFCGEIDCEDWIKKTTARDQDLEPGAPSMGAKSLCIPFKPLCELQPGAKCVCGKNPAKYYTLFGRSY
The test can be described thus: In vitro PRS enzyme activity inhibition experiment ([3H]proline, liquid scintillation). The conditions noted are these: purified PRS protein subcloned from EPRS cDNA; 37° C., 5 to 10 minutes; read-out: PRS IC50. It is filed as biochemical. How it is done: In order to confirm the biological activities of the compounds prepared in Examples, % inhibition or IC50 values of PRS enzyme ([…]) activities were calculated.
Specifically, the portion corresponding to PRS in cDNA of EPRS was subcloned, and the obtained high-purity PRS protein was purified and used in the experiment. The compounds (1 μM) prepared in Examples were added into the reaction buffer (20 mM KPO4 (pH 7.4), 6 mM MgAc, 5 mM ATP, […] tRNA, 0.5 mM DTT, 20 mCi[^3H]proline (1 mCi/mL)) and allowed to react at 37° C. for 5 to 10 minutes. The reaction was terminated with 3M paper that was previously dried by addition of 5% TCA. The radioactivity was measured using a liquid scintillation counter.
IC50 values of the respective compounds were calculated and analyzed using Microsoft Excel or Sigma Plot 8.0. In Table 1, the results are divided into A, B and C according to the range of IC50. The case where the derived IC50 is 100 nM or less is represented by “A”, the case where the IC50 is 100 to 500 nM is represented by “B”, and the case where the IC50 is 500 nM or higher is represented by “C”.

Some results are limits rather than exact numbers.

As for `O=C(C[C@H]1NCCC[C@@H]1O)Cn1cnc2ccccc21` [Example 1, 1-(1H-benzo[d]imidazol-1-yl)-3-((2R,3S)-3-hydroxypiperidin-2-yl)propan-2-one], the IC50 in the test on NCI-H460 cells was at least 30 µM; in test [1], above 0.5 µM.

With `O=C(C[C@H]1NCCC[C@@H]1O)Cn1cnc2cc(Cl)ccc21` [Example 2, 1-(5-chloro-1H-benzo[d]imidazol-1-yl)-3-((2R,3S)-3-hydroxypiperidin-2-yl)propan-2-one], the IC50 is 5 to 30 µM in the test on NCI-H460 cells and below 0.1 µM in test [1].

Take `O=C(C[C@H]1NCCC[C@@H]1O)Cn1cnc2ccc(Cl)cc21` [Example 3, 1-(6-chloro-1H-benzo[d]imidazol-1-yl)-3-((2R,3S)-3-hydroxypiperidin-2-yl)propan-2-one]: the IC50 is 5 to 30 µM in the test with NCI-H460 cells and below 0.1 µM in test [1].

For the molecule `O=C(C[C@H]1NCCC[C@@H]1O)Cn1cnc2cc(Br)ccc21` [Example 4, 1-(5-bromo-1H-benzo[d]imidazol-1-yl)-3-((2R,3S)-3-hydroxypiperidin-2-yl)propan-2-one], the IC50 in the test on NCI-H460 cells was 5 to 30 µM; in test [1], below 0.1 µM.

`O=C(C[C@H]1NCCC[C@@H]1O)Cn1cnc2ccc(Br)cc21` [Example 5, 1-(6-bromo-1H-benzo[d]imidazol-1-yl)-3-((2R,3S)-3-hydroxypiperidin-2-yl)propan-2-one]: the IC50 is 5 to 30 µM in the test with NCI-H460 cells and below 0.1 µM in test [1].

For the molecule `O=C(C[C@H]1NCCC[C@@H]1O)Cn1cnc2cc(C(F)(F)F)ccc21` [Example 6, 1-((2R,3S)-3-hydroxypiperidin-2-yl)-3-(5-(trifluoromethyl)-1H-benzo[d]imidazol-1-yl)propan-2-one], the IC50 was at least 30 µM with NCI-H460 cells and 0.1 to 0.5 µM in test [1].

Turning to `O=C(C[C@H]1NCCC[C@@H]1O)Cn1cnc2ccc(C(F)(F)F)cc21` [Example 7, 1-((2R,3S)-3-hydroxypiperidin-2-yl)-3-(6-(trifluoromethyl)-1H-benzo[d]imidazol-1-yl)propan-2-one], the half-inhibitory concentration (IC50) was 5 to 30 µM in the test on NCI-H460 cells and below 0.1 µM in test [1].

With `O=C(C[C@H]1NCCC[C@@H]1O)Cn1cnc2cccc(C(F)(F)F)c21` [Example 8, 1-((2R,3S)-3-hydroxypiperidin-2-yl)-3-(7-(trifluoromethyl)-1H-benzo[d]imidazol-1-yl)propan-2-one], the IC50 with NCI-H460 cells is 5 to 30 µM; in test [1], below 0.1 µM.

As for `Cc1cc2ncn(CC(=O)C[C@H]3NCCC[C@@H]3O)c2cc1C` [Example 9, 1-(5,6-dimethyl-1H-benzo[d]imidazol-1-yl)-3-((2R,3S)-3-hydroxypiperidin-2-yl)propan-2-one], the IC50 with NCI-H460 cells is at least 30 µM; in test [1] it was below 0.1 µM.

On to `O=C(C[C@H]1NCCC[C@@H]1O)Cn1cnc2cc(F)c(F)cc21` [Example 10, 1-(5,6-difluoro-1H-benzo[d]imidazol-1-yl)-3-((2R,3S)-3-hydroxypiperidin-2-yl)propan-2-one], for which the IC50 in the test on NCI-H460 cells was 5 to 30 µM; in test [1], 0.1 to 0.5 µM.

For `O=C(C[C@H]1NCCC[C@@H]1O)Cn1cnc2c(F)c(F)ccc21` [Example 11, 1-(4,5-difluoro-1H-benzo[d]imidazol-1-yl)-3-((2R,3S)-3-hydroxypiperidin-2-yl)propan-2-one], the values for the IC50 (in the test on NCI-H460 cells; in test [1]) were 5 to 30 µM and 0.1 to 0.5 µM, respectively.

Consider `O=C(C[C@H]1NCCC[C@@H]1O)Cn1cnc2c(Cl)c(Cl)ccc21` [Example 12, 1-(4,5-dichloro-1H-benzo[d]imidazol-1-yl)-3-((2R,3S)-3-hydroxypiperidin-2-yl)propan-2-one], for which the IC50 in the test on NCI-H460 cells is at most 5 µM; in test [1] it was below 0.1 µM.

In the case of `Cc1c(F)ccc2c1ncn2CC(=O)C[C@H]1NCCC[C@@H]1O` [Example 13, 1-(5-fluoro-4-methyl-1H-benzo[d]imidazol-1-yl)-3-((2R,3S)-3-hydroxypiperidin-2-yl)propan-2-one], the IC50 with NCI-H460 cells was at most 5 µM; in test [1] it was below 0.1 µM.

For `Cc1c(Cl)ccc2c1ncn2CC(=O)C[C@H]1NCCC[C@@H]1O` [Example 14, 1-(5-chloro-4-methyl-1H-benzo[d]imidazol-1-yl)-3-((2R,3S)-3-hydroxypiperidin-2-yl)propan-2-one], the results for the IC50 (in the test on NCI-H460 cells; in test [1]) were at most 5 µM and below 0.1 µM, respectively.

In the case of `Cc1c(Br)ccc2c1ncn2CC(=O)C[C@H]1NCCC[C@@H]1O` [Example 15, 1-(5-bromo-4-methyl-1H-benzo[d]imidazol-1-yl)-3-((2R,3S)-3-hydroxypiperidin-2-yl)propan-2-one], the values for the IC50 (in the test on NCI-H460 cells; in test [1]) were at most 5 µM and below 0.1 µM, respectively.

As to `Cc1ccc2c(ncn2CC(=O)C[C@H]2NCCC[C@@H]2O)c1C` [Example 16, 1-(4,5-dimethyl-1H-benzo[d]imidazol-1-yl)-3-((2R,3S)-3-hydroxypiperidin-2-yl)propan-2-one], the IC50 in the test on NCI-H460 cells was 5 to 30 µM; in test [1], below 0.1 µM.

Regarding `O=C(C[C@H]1NCCC[C@@H]1O)Cn1cnc2c(C(F)(F)F)c(F)ccc21` [Example 17, 1-(5-fluoro-4-(trifluoromethyl)-1H-benzo[d]imidazol-1-yl)-3-((2R,3S)-3-hydroxypiperidin-2-yl)propan-2-one], the results for the IC50 (in the test with NCI-H460 cells; in test [1]) were 5 to 30 µM and below 0.1 µM, respectively.

Take `O=C(C[C@H]1NCCC[C@@H]1O)Cn1cnc2c(C(F)(F)F)c(Br)ccc21` [Example 18, 1-(5-bromo-4-(trifluoromethyl)-1H-benzo[d]imidazol-1-yl)-3-((2R,3S)-3-hydroxypiperidin-2-yl)propan-2-one]: the IC50 was 5 to 30 µM with NCI-H460 cells and below 0.1 µM in test [1].

Consider `Cc1ccc2c(ncn2CC(=O)C[C@H]2NCCC[C@@H]2O)c1Br` [Example 19, 1-(4-bromo-5-methyl-1H-benzo[d]imidazol-1-yl)-3-((2R,3S)-3-hydroxypiperidin-2-yl)propan-2-one], for which the values for the IC50 (in the test with NCI-H460 cells; in test [1]) were 5 to 30 µM and below 0.1 µM, respectively.

For the molecule `O=C(C[C@H]1NCCC[C@@H]1O)Cn1cnc2c(F)c(Br)ccc21` [Example 20, 1-(5-bromo-4-fluoro-1H-benzo[d]imidazol-1-yl)-3-((2R,3S)-3-hydroxypiperidin-2-yl)propan-2-one], the IC50 was at most 5 µM in the test on NCI-H460 cells and below 0.1 µM in test [1].

Consider `O=C(C[C@H]1NCCC[C@@H]1O)Cn1cnc2c(Cl)c(F)ccc21` [Example 21, 1-(4-chloro-5-fluoro-1H-benzo[d]imidazol-1-yl)-3-((2R,3S)-3-hydroxypiperidin-2-yl)propan-2-one], for which the IC50 fell in the range of 5 to 30 µM in the test on NCI-H460 cells and 0.1 to 0.5 µM in test [1].

`O=C(C[C@H]1NCCC[C@@H]1O)Cn1cnc2c(Cl)c(Br)ccc21` [Example 22, 1-(5-bromo-4-chloro-1H-benzo[d]imidazol-1-yl)-3-((2R,3S)-3-hydroxypiperidin-2-yl)propan-2-one]: the IC50 is at most 5 µM in the test on NCI-H460 cells and below 0.1 µM in test [1].

`Cc1cc(Br)cc2c1ncn2CC(=O)C[C@H]1NCCC[C@@H]1O` [Example 23, 1-(6-bromo-4-methyl-1H-benzo[d]imidazol-1-yl)-3-((2R,3S)-3-hydroxypiperidin-2-yl)propan-2-one]: the IC50 in the test on NCI-H460 cells is 5 to 30 µM; in test [1], below 0.1 µM.

As for `Cc1cc(Cl)cc2c1ncn2CC(=O)C[C@H]1NCCC[C@@H]1O` [Example 24, 1-(6-chloro-4-methyl-1H-benzo[d]imidazol-1-yl)-3-((2R,3S)-3-hydroxypiperidin-2-yl)propan-2-one], the IC50 with NCI-H460 cells is 5 to 30 µM; in test [1], below 0.1 µM.

As to `O=C(C[C@H]1NCCC[C@@H]1O)Cn1cnc2cc(Cl)c(Cl)cc21` [Example 25, 1-(5,6-dichloro-1H-benzo[d]imidazol-1-yl)-3-((2R,3S)-3-hydroxypiperidin-2-yl)propan-2-one], the values for the IC50 (in the test with NCI-H460 cells; in test [1]) were at most 5 µM and below 0.1 µM, respectively.

Source of the values: patent US10081634B2, “Heterocyclic compound” (Daewoong Pharmaceutical Co., Ltd., priority 2014, dated 2018).
